Data published in paper PMC5976250 (The Biochemical journal, 2017).

How the values were obtained:
[1] = test system: full-length Cx45 (mCx45-Rluc) interaction with Venus–CaM; experiment: BRET assay of CaM–Cx45 interaction in live HEK293 cells; assay type: cell-based, mouse (Cx45); rat (CaM); settings: 50 μM BAPTA-AM
[2] = test system: electrical uncoupling (gap junctions), amphibian embryonic cells, crayfish axons; settings: cited from earlier work; for effect on uncoupling: Xenopus embryonic cells, ref [73], crayfish axons, ref [74],[75]
[3] = test system: CaM; settings: α-family; ref [34],[49]; cited from earlier work
[4] = molecular target: T1, CaM (Rattus norvegicus, UniProt P0DP29); settings: earlier connexin peptide studies; ref [49]; cited from earlier work
[5] = molecular target: T1, CaM; settings: complex formation; ref [49]; listed as Cx50-derived peptide; cited from earlier work

## CC(=O)OCOC(=O)CN(CC(=O)OCOC(C)=O)c1ccccc1OCCOc1ccccc1N(CC(=O)OCOC(C)=O)CC(=O)OCOC(C)=O [BAPTA-AM]
[1]
  intracellular Ca2+ after treatment: ~ 0.27 nM
[1]; 20 min
  BRET signal (ratio 525/460 nm) after treatment: ~ 0.03

## Cl.NCCCCCCNS(=O)(=O)c1cccc2c(Cl)cccc12 [W7, N-(6-aminohexyl)-5-chloro-1-naphthalenesulfonamide hydrochloride]
[2]
  effect on uncoupling: prevent uncoupling

## Clc1ccc(C(c2ccc(Cl)cc2)n2cc[n+](CC(OCc3ccc(Cl)cc3Cl)c3ccc(Cl)cc3Cl)c2)cc1 (centres unmarked) [calmidazolium]
[2]
  effect on uncoupling: prevent uncoupling

## CN1CCN(CCCN2c3ccccc3Sc3ccc(C(F)(F)F)cc32)CC1 [trifluoperazine (TFP), trifluoperazine]
[2]; ref [72]
  effect on electrical uncoupling of amphibian embryonic cells: protected amphibian embryonic cells from electrical uncoupling

## Cx43p136–158: α-family connexin Cx43 peptide
[3]
  binding mode to CaM (literature): compact form
[4]
  chemical shift change pattern of CaM (literature): localized change

## Cx44p132–153: α-family connexin Cx44 peptide
[3]
  binding mode to CaM (literature): compact form

## Cx50p141–166: α-family connexin Cx50 peptide (FRLEGTLLRTYICHIIFKTLFEVGFI; UniProt P48165 141-166, looked up, fragment)
[5]
  decrease in hydrodynamic radius of CaM: decreased significantly
[3]
  binding mode to CaM (literature): embraced compact form
[4]
  chemical shift change pattern of CaM (literature): localized change
